| SMILES | melting point [°C] |
| --- | --- |
| CC(=O)OCCn1nc(-c2cc(C(C)(C)C)cc(C(C)(C)C)c2)c2cccnc21 | 115 to 116 |
| O=C(O)CCCc1cc2nc(Cl)ccc2n1S(=O)(=O)c1cccc(-c2cncs2)c1 | 157 to 160 |
| CC(C)c1cc(S(N)(=O)=O)c(C(C)C)cc1C(F)(F)F | 171 to 174 |
| CN1CCCC1CNC(=O)c1ccc(S(=O)(=O)N(C)C)c2c1OCCO2 (centres undefined) | 165 to 166 |
| CC1(C)NCCc2c1oc1cc(S(=O)(=O)c3cccc(F)c3)ccc21 | 110 to 114 |
| Cc1cc(C2(C(F)(F)F)CC(n3cncn3)=NO2)ccc1NC(=O)c1cccc(I)c1C(=O)NC(C)C (centres undefined) | 131 to 133 |
| CCNC(=S)NS(=O)(=O)c1cc2c(cc1OC)OCCC2CNC(=O)c1cc(Cl)ccc1OC (centres undefined) | 196 to 197 |
| O=C(CCCc1ccccc1)N[C@H](Cc1ccc(F)cc1)[C@@H](O)c1ccc(C(F)(F)F)cc1 (racemic) | 155 to 156 |
| CNC(=O)N1CC(Oc2ccccn2)C1 | 165 to 168 |
| Cc1sc(NC(=O)CCc2cnoc2-c2ccccc2)nc1-c1ccccc1 | 150 to 151 |
| CC(C)CCCC(C)NC(=O)Oc1ccc(Oc2ccccc2)cc1F (centres undefined) | 37 to 41 |
| O=C1c2ccccc2CN1C1CCN(c2ccc(C(OCc3ccccn3)c3ccccc3)cc2)CC1 (centres undefined) | 149 to 151 |
| O=C(c1ccsc1)c1cccc(-c2c(O)c3ccc(Cl)cc3[nH]c2=O)c1 | 287 to 290 |
| CSC1=C(c2ccc(O)cc2)C(=O)c2cc(O)cc(O)c21 | 120 to 123 |
| COC(=O)c1cn(C2CC2)c2nc(C)ccc2c1=O | 204 to 205 |
| COC(=O)C(C#N)=Cc1cc(-n2c(=O)cc(C(F)(F)F)n(C)c2=O)ccc1Cl | 187 to 188 |
| CCc1nn(C2CCCC2)c2c1CCn1c(-c3cccs3)nnc1-2 | 126 |

| SMILES | melting point [°C] |
| --- | --- |
| Cc1cc(C)c(S(=O)(=O)N2CCCC2c2ccc(F)cc2)c(C)c1 (racemic) | 111 |
| O=C1c2cc([N+](=O)[O-])ccc2OCCN1CCO | 151 |
| CCCCOC(=O)c1cccc(-c2c3nn(-c4ccc(Cl)cc4)c(=O)c-3c[nH]c2C)c1 | 185 to 190 |
| CN1C(=O)C(NC(=O)C23CC4CC(CC(C4)C2)C3)N=C(c2ccccc2)c2ccccc21 (racemic) | 256 to 257 |
| O=C(CP(=O)(O)CCCCc1ccccc1)OCc1ccccc1 | 64 to 67 |
| OC1(C(Br)Br)O[C@H](COCc2ccccc2)[C@@H](OCc2ccccc2)[C@H](OCc2ccccc2)[C@H]1OCc1ccccc1 (some centres undefined) | 77 to 78 |
| CCNc1nc(Cl)c(Br)c(NC2CC2)n1 | 100 to 101 |
| O=c1c2ccccc2cc(N2CCCCC2)c2ccccc12 | 103 to 105 |
| O=C(O)C(Oc1ccc(N2CCCCC2)cc1)c1cccc(Cl)c1 (centres undefined) | 149 to 151 |
| Cc1[nH]cnc1C=CC(=O)c1cn2c3c(cccc13)CCC2 | 108 to 110 |
| COc1ccc2ccc(C(=O)CNC(=O)Cc3ccc4ccccc4c3)cc2c1 | 169 to 173 |
| Nc1ncc2cc(-c3c(Cl)cccc3Cl)c(=O)n(Cc3ccccc3)c2n1 | 220 to 222 |
| N#Cc1ccc2c(c1)CS(=O)(=O)NN=C2c1ccc(F)cc1 | 218 to 219 |
| CC1(C)OCC(COc2cc(O)nc(N)n2)O1 (centres undefined) | 258 |
| N#Cc1cc(-n2nnnc2C(F)(F)F)ccc1OC(F)(F)F | 65 to 67 |
| CN(C)C(=O)C(c1ccccc1)(c1ccccc1)C1CCNC1 (centres undefined) | 159 to 160 |

Other lines, results leading:

| melting point [°C] | SMILES |
| --- | --- |
| 229 to 231 | CS(=O)(=O)c1ccc(-c2[nH]c(I)cc2-c2ccc(F)cc2)cc1 |
| 205 to 207 | CC(=O)OCC(=O)Nc1nc2c(Cl)cccc2s1 |
| 128 to 132 | CCCCCCCCCCCCCCCCCC(=O)c1ccc(O)c(C(=O)O)c1 |
| 228 to 229 | Cc1nnc(-c2ccc3ccn(-c4ccc(S(C)(=O)=O)cc4)c3c2)o1 |
| 98 to 100 | O=C(N[C@@H]1C(=O)N[C@@H]1CO)OCc1ccccc1 |
| 152 | COc1cc2c(cc1Nc1ncc(Cl)c(N[C@H]3[C@@H](C(N)=O)[C@@H]4C=C[C@H]3C4)n1)NC(=O)CN(CC1CC1)C2 |
| 191 to 193 | COc1ccc(NC(=O)c2ccc(F)c(F)c2)cc1NS(=O)(=O)CCl |
| 174 to 175 | CN(C(=O)c1ccc([N+](=O)[O-])cc1)C1N(C)C(c2ccc(F)cc2)=NC1(C(F)(F)F)C(F)(F)F (centres undefined) |
| 93 to 94 | CON=CC1=CCCN(C(=O)OCC(=O)N2CCCCC2)C1 |
| 85 | O=C(O)CCc1ccc(CNC(=O)C2Cc3ccccc3N2S(=O)(=O)c2ccc(-c3cccc(C(F)(F)F)c3)cc2)cc1 (centres undefined) |
| 233 to 234 | CCOc1ccc(S(=O)(=O)N(CC(=O)NN=C2C(=O)Nc3ccc(I)cc32)c2ccccc2)cc1 |
| 107 | CCOC(=O)Nc1cc(F)c(C#N)cc1F |
| 215 to 217 | Cc1ccc(OC2CCN(C(=O)C(=O)Nc3ccc4[nH]c(=O)sc4c3)CC2)cc1 |
| 164 | Cc1ncn(Nc2cccc(Cl)c2)c1-c1cccc(Br)c1 |
| 162 to 164 | O=C(c1ccccc1)N1CCC(CN2CCc3c([nH]c4ccccc34)C2)CC1 |
| 71 to 74 | CN1C(=O)N(C[C@@H]2COC(=O)[C@@H]2CC2CCCC2)C(=O)C1(C)C (racemic) |
| 110 to 112 | COCC1CN(c2ccc3cc(OCCC#N)ccc3c2)C(=O)O1 (centres undefined) |
| 124 to 126 | Clc1ncnc2c1N(C1CC=CC1)CN2 |

| melting point [°C] | SMILES |
| --- | --- |
| 209 to 210 | CC(C)S(=O)(=O)n1c(N)nc2ccc(C(O)(CC(=O)N(C)C)c3ccccc3)cc21 (centres undefined) |
| 122 to 124 | COc1cc2c(cc1C)CCN=C2CCc1ccc(Cl)cc1 |
| 173 to 174 | O=C(O)Cc1ccc2noc(-c3ccccc3)c2c1 |
| 245 to 255 | Cc1[nH]c2ncnc(Nc3cccc(F)c3)c2c1C |
| 85 to 86 | C=CCn1c(C)c(C)c2cnnc(OCc3cccc(F)c3)c21 |
| 236 to 238 | Cc1cc(O)c2c3c(oc(=O)c2c1)C(=O)c1c(O)cccc1C3=O |
| 180 to 182 | CCCCc1oc2ccc(CO)cc2c1C(=O)c1ccc(O)cc1 |
| 112 to 113 | Cc1oc(-c2ccccc2)nc1CCOc1ccc(CC(C)(C)C(=O)NS(C)(=O)=O)cc1 |
| 40 to 42 | CCCCCCCCCCCCCCCCCCOc1cc(OCCCCC(=O)OC)cc(C(=O)OCc2ccccc2)c1 |
| 87.5 to 90.4 | COC(=O)COc1ccc(NC(=O)CCCCCO)cc1 |
| 150 to 151 | COc1cc(OC)c(CN2CCc3cc(O)c(OC)cc3C2)c(OC)c1 |
| 71 to 72 | CS(=O)(=O)NC1Cc2ccc(C(=O)CCCCCl)cc2C1 (centres undefined) |
| 142 | O=C1c2ccccc2C(OCCc2ccccn2)N1c1ccc2ccc(Cl)nc2n1 (centres undefined) |
| 145 to 147 | COC1=CC(C)=NN(NC(=O)N=NS(=O)(=O)C2SCCN2OCC=CCl)N1 (centres undefined) |
| 72.5 to 74 | O=C(Cl)N1CC(Oc2cccc(C(F)(F)F)c2)C1 |
| 199 to 202 | O=[N+]([O-])c1ccc(-n2ccnc2SCc2ccccc2N2CCOCC2)nc1 |
| 107 | CCOC(=O)C(=CC(C)c1ccc(Br)cc1)CC(=O)O (centres undefined) |
| 148 to 150 | CC1CCN(c2c(F)c(N)c3c(=O)c(C(=O)O)cn(C4CC4)c3c2F)CC(C)(C)C1 (centres undefined) |

From a melting point compilation (Tetko et al.; mined from patent text by program, amines drawn as free bases though some values may be those of a salt)
